Experimental data taken from the NIST ThermoML archive (doi:10.1021/je700260f).

Details: 293.15 K, Liquid, Vibrating tube method

FC(C(F)(F)F)C(F)(F)F [1,1,1,2,3,3,3-heptafluoropropane]
Details	mass density [kg/m3]
19492 kPa	1505.8
19631 kPa	1506.6
19665 kPa	1506.5
19699 kPa	1506.6
19732 kPa	1506.9
19762 kPa	1506.9
19806 kPa	1507.1
19844 kPa	1507.3
19868 kPa	1507.3
19906 kPa	1507.5
19940 kPa	1507.7
19974 kPa	1507.8
20007 kPa	1507.9
20047 kPa	1508
20080 kPa	1508.1
20109 kPa	1508.3
20152 kPa	1508.4
20190 kPa	1508.6
20215 kPa	1508.7
20258 kPa	1508.8
20302 kPa	1508.9
20335 kPa	1509.2
20375 kPa	1509.2
20404 kPa	1509.3
20434 kPa	1509.5
20478 kPa	1509.6
20517 kPa	1509.9
20546 kPa	1510
20591 kPa	1510.1
20630 kPa	1510.1
20659 kPa	1510.3
20702 kPa	1510.5
20732 kPa	1510.6
20761 kPa	1510.6
20802 kPa	1510.8
20843 kPa	1511
20873 kPa	1511
20907 kPa	1511.2
20982 kPa	1511.5
21017 kPa	1511.6
21048 kPa	1511.8
21094 kPa	1511.9
21134 kPa	1512
21164 kPa	1512.1
21209 kPa	1512.3
21245 kPa	1512.4
21279 kPa	1512.5
21314 kPa	1512.7
21359 kPa	1512.8
21389 kPa	1513
21458 kPa	1513.1
21488 kPa	1513.2
21669 kPa	1513.9
21699 kPa	1513.9
21739 kPa	1514.2
21927 kPa	1514.8
21967 kPa	1515
22009 kPa	1515.2
22034 kPa	1515.3
22076 kPa	1515.4
22122 kPa	1515.5
22152 kPa	1515.7
22194 kPa	1515.8
22230 kPa	1515.9
22261 kPa	1516.2
22291 kPa	1516.2
22322 kPa	1516.3
22358 kPa	1516.3
22404 kPa	1516.5
22440 kPa	1516.7
22476 kPa	1516.8
22522 kPa	1516.9
22548 kPa	1517.1
22584 kPa	1517.1
22625 kPa	1517.4
22661 kPa	1517.5
22702 kPa	1517.6
22744 kPa	1517.7
22781 kPa	1517.9
22813 kPa	1518
22849 kPa	1518.2
22886 kPa	1518.3
22923 kPa	1518.4
22959 kPa	1518.6
23001 kPa	1518.7
23042 kPa	1518.8
23072 kPa	1518.8
23118 kPa	1519
23154 kPa	1519.1
23191 kPa	1519.3
23228 kPa	1519.5
23271 kPa	1519.7
23308 kPa	1519.7
23350 kPa	1519.8
23392 kPa	1520
23424 kPa	1520.1
23466 kPa	1520.2
23513 kPa	1520.5
23540 kPa	1520.6
23577 kPa	1520.5
23615 kPa	1520.7
23648 kPa	1520.9
23692 kPa	1521
23735 kPa	1521.1
23815 kPa	1521.5
23852 kPa	1521.6
23883 kPa	1521.6
23925 kPa	1521.8
23962 kPa	1521.9
23986 kPa	1522.1
24019 kPa	1522.1
24048 kPa	1522.3
24087 kPa	1522.4
24120 kPa	1522.5
24149 kPa	1522.6
24187 kPa	1522.7
24229 kPa	1522.8
24263 kPa	1523
24297 kPa	1523
24326 kPa	1523.2
24354 kPa	1523.2
24393 kPa	1523.3
24422 kPa	1523.3
24451 kPa	1523.5
24485 kPa	1523.6
24524 kPa	1523.8
24553 kPa	1523.9
24587 kPa	1524.1
24630 kPa	1524.2
24659 kPa	1524.3
24698 kPa	1524.5
24728 kPa	1524.6
24757 kPa	1524.6
24786 kPa	1524.7
24816 kPa	1524.7
24851 kPa	1524.9
24886 kPa	1525
24920 kPa	1525.2
24949 kPa	1525.2
24991 kPa	1525.5
25030 kPa	1525.6
25059 kPa	1525.6
25097 kPa	1525.8
25136 kPa	1525.9
25165 kPa	1526.1
25199 kPa	1526.1
25229 kPa	1526.1
25268 kPa	1526.4
25297 kPa	1526.4
25326 kPa	1526.6
25360 kPa	1526.8
25393 kPa	1526.6
25438 kPa	1526.9
25466 kPa	1527
25496 kPa	1527.2
25530 kPa	1527.2
25569 kPa	1527.4
25594 kPa	1527.4
25639 kPa	1527.4
25678 kPa	1527.7
25708 kPa	1527.9
25747 kPa	1527.9
25791 kPa	1528.1
25816 kPa	1528.2
25845 kPa	1528.1
25889 kPa	1528.4
25923 kPa	1528.5
25958 kPa	1528.6
25994 kPa	1528.8
26024 kPa	1528.9
26068 kPa	1529
26112 kPa	1529.1
26141 kPa	1529.3
26181 kPa	1529.4
26220 kPa	1529.5
26250 kPa	1529.5
26284 kPa	1529.7
26319 kPa	1529.8
26349 kPa	1529.9
26391 kPa	1530.1
26430 kPa	1530.1
26455 kPa	1530.3
26504 kPa	1530.5
26534 kPa	1530.6
26570 kPa	1530.6
26610 kPa	1530.7
26646 kPa	1530.8
26682 kPa	1530.9
26717 kPa	1531.1
26753 kPa	1531.3
26784 kPa	1531.3
26824 kPa	1531.4
26864 kPa	1531.6
26899 kPa	1531.6
26939 kPa	1531.8
26979 kPa	1532
27009 kPa	1532.1
27045 kPa	1532.2
27080 kPa	1532.3
27115 kPa	1532.4
27151 kPa	1532.6
27188 kPa	1532.6
27224 kPa	1532.8
27265 kPa	1532.9
27302 kPa	1533.1
